Patent publication US8530493B2, “Indolopyridines as Eg5 kinesin modulators” (4SC AG, priority 2006, dated 2013)

tested on: RKO p21 uninduced (proliferating) colon adenocarcinoma cells; test: Alamar Blue cell viability assay, RKO p21 uninduced (proliferating); type: cell-based; settings: Homo sapiens, Table B3, anti-proliferative/cytotoxic activity, 72 hours, read-out: −log EC50 RKO p21 uninduced (proliferating) (converted)
Method in brief: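 RKO p21 or p27 subclones grown without Ponasterone A, i.e. proliferating, exposed 24 h after seeding to semi-log compound dilutions in DMEM/10% FCS (1% DMSO controls) for 72 h at 37° C. Alamar Blue fluorescence (544/590 nm) read relative to untreated cells; EC50 from dose-response curves, given as −log EC50 (mol/l).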

Compound | EC50
COCCNCCN1C(=O)N2[C@H](c3cccc(O)c3)c3[nH]c4ccc(OC(F)F)cc4c3C[C@@]2(C)C1=O (racemic) [Example 271, (3aSR,10RS)-6-(1,1-Difluoro-methoxy)-10-(3-hydroxy-phenyl)-2-[2-(2-methoxy-ethylamino)-ethyl]-3a-methyl-3a,4,9,10-tetrahydro-2,9,10a-triaza-cyclopenta[b]fluorene-1,3-dione] | ≤ 39.8 nM
CCN(C)CCCN1C(=O)N2[C@H](c3cccc(O)c3)c3[nH]c4ccc(OC)cc4c3C[C@@]2(C)C1=O [Example 541, (3aS,10R)-2-[3-(Ethyl-methyl-amino)-propyl]-10-(3-hydroxy-phenyl)-6-methoxy-3a-methyl-3a,4,9,10-tetrahydro-2,9,10a-triaza-cyclopenta[b]fluorene-1,3-dione] | ≤ 39.8 nM
CCOc1ccc2[nH]c3c(c2c1)C[C@@]1(C)C(=O)N(CCNC(C)C)C(=O)N1[C@@H]3c1cccc(O)c1 (racemic) [Example 152, (3aSR,10RS)-6-Ethoxy-10-(3-hydroxy-phenyl)-2-(2-isopropylamino-ethyl)-3a-methyl-3a,4,9,10-tetrahydro-2,9,10a-triaza-cyclopenta[b]fluorene-1,3-dione] | ≤ 39.8 nM
C=CCN(C)CCCN1C(=O)N2[C@H](c3cccc(O)c3)c3[nH]c4cc(F)c(Cl)cc4c3C[C@@]2(C)C1=O (racemic) [Example 472, (3aSR,10RS)-2-[3-(Allyl-methyl-amino)-propyl]-6-chloro-7-fluoro-10-(3-hydroyx-phenyl)-3a-methyl-3a,4,9,10-tetrahydro-2,9,10a-triaza-cyclopenta[b]fluorene-1,3-dione] | 39.8 to 251 nM
CCN(CCO)CCN1C(=O)N2[C@H](c3cccc(O)c3)c3[nH]c4ccc(OC(F)F)cc4c3C[C@@]2(C)C1=O (racemic) [Example 277, (3aSR,10RS)-6-(1,1-Difluoro-methoxy)-2-{2-[ethyl-(2-hydroxy-ethyl)-amino]-ethyl}-10-(3-hydroxy-phenyl)-3a-methyl-3a,4,9,10-tetrahydro-2,9,10a-triaza-cyclopenta[b]fluorene-1,3-dione] | 39.8 to 251 nM
C#CCNCCCN1C(=O)N2[C@H](c3cccc(O)c3)c3[nH]c4cc(F)c(OC)cc4c3C[C@@]2(C)C1=O (racemic) [Example 309, (3aSR,10RS)-7-Fluoro-10-(3-hydroxy-phenyl)-6-methoxy-3a-methyl-2-(3-prop-2-ynylamino-propyl)-3a,4,9,10-tetrahydro-2,9,10a-triaza-cyclopenta[b]fluorene-1,3-dione] | 39.8 to 251 nM
CCNCCCN1C(=O)N2[C@H](c3cccc(O)c3)c3[nH]c4cc(F)c(Cl)cc4c3C[C@@]2(C)C1=O (racemic) [Example 457, (3aSR,10RS)-6-Chloro-2-(3-ethylamino-propyl)-7-fluoro-10-(3-hydroxy-phenyl)-3a-methyl-3a,4,9,10-tetrahydro-2,9,10a-triaza-cyclopenta[b]fluorene-1,3-dione] | 39.8 to 251 nM
CCN(CC)CCN1C(=O)N2[C@H](c3cccc(O)c3)c3[nH]c4cc(F)c(OC)cc4c3C[C@@]2(C)C1=O (racemic) [Example 258, (3aSR,10RS)-2-(2-Diethylamino-ethyl)-7-fluoro-10-(3-hydroxy-phenyl)-6-methoxy-3a-methyl-3a,4,9,10-tetrahydro-2,9,10a-triaza-cyclopenta[b]fluorene-1,3-dione] | 39.8 to 251 nM
COc1ccc2[nH]c3c(c2c1)C[C@@]1(C)C(=O)N(CCCN2CCN(C)CC2)C(=O)N1[C@@H]3c1cccc(O)c1 (racemic) [Example 150, (3aSR,10RS)-10-(3-Hydroxy-phenyl)-6-methoxy-3a-methyl-2-[3-(4-methyl-piperazin-1-yl)-propyl]-3a,4,9,10-tetrahydro-2,9,10a-triaza-cyclopenta[b]fluorene-1,3-dione] | ≤ 39.8 nM
COc1cc2c3c([nH]c2cc1F)[C@@H](c1cccc(O)c1)N1C(=O)N(CCNC(C)(C)C)C(=O)[C@]1(C)C3 (racemic) [Example 256, (3aSR,10RS)-2-(2-tert-Butylamino-ethyl)-7-fluoro-10-(3-hydroxy-phenyl)-6-methoxy-3a-methyl-3a,4,9,10-tetrahydro-2,9,10a-triaza-cyclopenta[b]fluorene-1,3-dione] | ≤ 39.8 nM
CCN(CCCN1C(=O)N2[C@H](c3cccc(O)c3)c3[nH]c4ccc(OC)cc4c3C[C@@]2(C)C1=O)CCOC [Example 544, (3aS,10R)-2-{3-[Ethyl-(2-methoxy-ethyl)-amino]-propyl}-10-(3-hydroxy-phenyl)-6-methoxy-3a-methyl-3a,4,9,10-tetrahydro-2,9,10a-triaza-cyclopenta[b]fluorene-1,3-dione] | ≤ 39.8 nM
C=CCN(C)CCN1C(=O)N2[C@H](c3cccc(O)c3)c3[nH]c4ccc(OC(F)F)cc4c3C[C@@]2(C)C1=O (racemic) [Example 290, (3aSR,10RS)-2-[2-(Allyl-methyl-amino)-ethyl]-6-(1,1-difluoro-methoxy)-10-(3-hydroxy-phenyl)-3a-methyl-3a,4,9,10-tetrahydro-2,9,10a-triaza-cyclopenta[b]fluorene-1,3-dione] | 39.8 to 251 nM
CCNCCN1C(=O)N2[C@H](c3cccc(O)c3)c3[nH]c4cc(F)c(OC)cc4c3C[C@@]2(C)C1=O (racemic) [Example 249, (3aSR,10RS)-2-(2-Ethylamino-ethyl)-7-fluoro-10-(3-hydroxy-phenyl)-6-methoxy-3a-methyl-3a,4,9,10-tetrahydro-2,9,10a-triaza-cyclopenta[b]fluorene-1,3-dione] | ≤ 39.8 nM
COc1cc2c3c([nH]c2cc1F)[C@@H](c1cccc(O)c1)N1C(=O)N(CCCN2CC=CCC2)C(=O)[C@]1(C)C3 (racemic) [Example 326, (3aSR,10RS)-2-[3-(3,6-Dihydro-2H-pyridin-1-yl)-propyl]-7-fluoro-10-(3-hydroxy-phenyl)-6-methoxy-3a-methyl-3a,4,9,10-tetrahydro-2,9,10a-triaza-cyclopenta[b]fluorene-1,3-dione] | 39.8 to 251 nM
CCOc1ccc2[nH]c3c(c2c1)C[C@@]1(C)C(=O)N(CCN(C)CCO)C(=O)N1[C@@H]3c1cccc(O)c1 (racemic) [Example 297, (3aSR,10RS)-6-Ethoxy-2-{2-[(2-hydroxy-ethyl)-methyl-amino]-ethyl}-10-(3-hydroxy-phenyl)-3a-methyl-3a,4,9,10-tetrahydro-2,9,10a-triaza-cyclopenta[b]fluorene-1,3-dione] | 39.8 to 251 nM
CC(C)(C)NCCCN1C(=O)N2[C@H](c3cccc(O)c3)c3[nH]c4ccc(OC(F)F)cc4c3C[C@@]2(C)C1=O (racemic) [Example 182, (3aSR,10RS)-2-(3-tert-Butylamino-propyl)-6-(1,1-difluoro-methoxy)-10-(3-hydroxy-phenyl)-3a-methyl-3a,4,9,10-tetrahydro-2,9,10a-triaza-cyclopenta[b]fluorene-1,3-dione] | ≤ 39.8 nM
C[C@@]12Cc3c([nH]c4ccc(OC(F)F)cc34)[C@@H](c3cccc(O)c3)N1C(=O)N(CCCNC1CC1)C2=O (racemic) [Example 202, (3aSR,10RS)-2-(3-Cyclopropylamino-propyl)-6-(1,1-difluoro-methoxy)-10-(3-hydroxy-phenyl)-3a-methyl-3a,4,9,10-tetrahydro-2,9,10a-triaza-cyclopenta[b]fluorene-1,3-dione] | 39.8 to 251 nM
